Experimental data: patent publication US8575181B2, “Purine derivatives for use in the treatment of allergic, inflammatory and infectious diseases” (GlaxoSmithKline LLC, priority 2008, dated 2013)

Key:
Assay type in all cases: cell-based
Interferon-α [1] = assay: Induction of Interferon-α using cryopreserved human PBMCs; details: PBMC, 24 h, 24 h incubation, normalised to 1 uM resiquimod and DMSO, read-out: mean pEC50 (induction of Interferon-α) (converted)
Description: Assay for the Induction of Interferon-α Using Cryopreserved Human Peripheral Blood Mononuclear Cells (PBMCs)
Compounds were dissolved in DMSO. Serial 2-fold dilutions with DMSO were prepared and 0.25 μl dispensed into 384-well clear Greiner polypropylene plates.
Blood samples of up to 200 ml were obtained from healthy human donors. Whole blood in 25 ml volumes was overlaid onto 15 ml Ficoll gradients in Leucosep tubes, and centrifuged at 1000 g for 20 min. Cells in the band at the plasma/histopaque interface were carefully removed and washed twice with PBS (centrifuged at 400 g for 5 min to harvest). The final pellet was resuspended in freezing medium (90% Heat-inactivated serum, 10% DMSO) to a cell concentration of 4×10^7 cells/ml. The resuspended cells were then cryopreserved (frozen) using a rate controlled freezer, and stored at −140° C. for up to 4 months.
Incubation and Assay for Interferon-α
Immediately prior to assay, vials of cryopreserved (frozen) PBMCs were thawed rapidly in a water bath at 37° C. A 1:10 dilution of the cells in trypan blue was prepared and counted. The PBMCs were then diluted in growth media [RPMI 1640 containing 10% fetal calf serum (invitrogen), Penicillin+[…] (Gibco cat. #25030-024, 1:50), L-Glutamine 2 mM, and 1000 units/ml recombinant human IFN-gamma (Preprotech catalogue #300-02)] to a density of 1×10^6 cells/ml, and 50 ul/well dispensed to 384-well clear Greiner polypropylene plates containing 0.25 μl DMSO or test compound in 0.25 μl DMSO. […] Plates were incubated for 24 h at 37° C. in 5% CO2.
A multi-isoform immunoassay was used to quantify IFN-α in PBMC supernatants. Rabbit polyclonal antibody against human IFN-α (catalogue number 31101, Stratech Scientific) was diluted 1:10000 in assay buffer (RPMI 1640 containing 10% fetal calf serum, Invitrogen) and 20 μl was added to each well of an MSD (Meso-Scale Discovery) single small-spot 384-well GAR (goat anti-rabbit antibody coated) plate. The plate was incubated for 1 h at room temperature with vigorous shaking. Following three washes with PBS, 20 μl of cell supernatant were added to each well of the plate. The plate was then incubated for 1 h at room temperature with vigorous shaking. A pair of monoclonal antibodies to IFN-α (catalogue numbers 21100 and 21112, Stratech Scientific) were labelled with sulfo-TAG (MSD), diluted 1:1000 in assay buffer and 20 μl added to each well of the plate. The plate was further incubated for 1 h at room temperature with vigorous shaking. Following three washes with PBS, 30 μl of ×2 T buffer (MSD) was added to each well and the plate was read on an MSD Sector 6000 plate reader.
Data were normalised to internal plate controls of 1 uM resiquimod (n=16) and DMSO (n=16). pEC50 values were derived by 4-parameter curve fit with IRLS in ActivityBase, from 11-point, two-fold serial dilution of test compounds.

Interferon-α [2] = assay: Induction of Interferon-α using fresh human PBMCs; details: PBMC, two donors, 24 hr incubation, percentage of 2 μM resiquimod control, read-out: mean pEC50 for induction of IFN-α (converted)
Description: (§1) Assay for the Induction of Interferon-α and TNF-α Using Fresh Human Peripheral Blood Mononuclear Cells (PBMCs)
(§2) Compounds were dissolved and serially diluted in DMSO to give 100× the required concentration range using a Biomek 2000. 1 ul of test compound was transferred into 96-well tissue culture plates using a Biomek FX. Each compound was assayed in duplicate for each donor. Each plate contained a dilution series of the TLR7/8 agonist resiquimod as standard and Column 11 contained 1 μl of 200 μM resiquimod (giving a 2 μM final concentration, used to define the approximate maximal response to resiquimod).
(§3) Blood samples from two human donors were collected into sodium heparin (10 U/ml). 25 ml volumes of whole blood were overlaid onto 15 mls Histopaque in Leucosep tubes which were centrifuged at 800 g for 20 min and the band at the plasma/histopaque interface carefully removed. The collected cells were centrifuged at 2500 rpm for 10 min and the pellet resuspended in 10 ml of media (RPMI 1640 (Low endotoxin) supplemented with 10% v/v foetal calf serum (FCS, low endotoxin) 100 U/ml penicillin G, 100 μg/ml streptomycin, 10 mM L-glutamine and 1× non-essential amino acids). A 1:20 dilution of the cells was prepared using trypan blue & the cells counted using a haemocytometer. The PBMCs were diluted to give a final concentration of 2×10^6/ml and 100 ul of this cells suspension was added to wells containing 1 μl of diluted test compound.
(§4) Incubation and Assays for Interferon-α and TNF-α
(§5) The cell preparations were incubated for 24 hr (37° C., 95% air, 5% CO2) after which a sample of the supernatant was removed using the Biomek FX and assayed for both IFN-α and TNF-α using the MSD (Mesoscale Discovery) electrochemiluminescence assay platform. The IFN-α assay was carried out similarly to that described above. The TNF-α assay was carried out as per kit instructions (Cat No K111BHB).
(§6) Cytokine released was expressed as a percentage of the 2 μM resiquimod control (column 11). This percentage was plotted against compound concentration and the pEC50 for the response determined by non-linear least squares curve fitting. For the IFN-α responses generally a 4 parameter logistic model was selected. For the TNF responses where a clear maximum response was obtained (i.e. a well defined plateau in the response was observed) then a 4 parameter model was generally used. If the upper asymptote of the curve wasn't well defined then the curve fitting was generally constrained to a maximal response of 100% (i.e. to the response to 2 μM resiquimod) or to the response of the highest concentration tested if this was greater than the resiquimod response. Some curves were bell shaped for one or both cytokines and the cytokine data on the down slope of the bell shaped response (i.e. concentrations above those giving the maximal response) were generally excluded from the fit, usually with the exception of the concentration immediately above the peak response. Curve fitting thus concentrated on the up slope of the dose response curve.

TNF-α = assay: Induction of TNF-α using fresh human PBMCs; details: PBMC, two donors, 24 hr incubation, percentage of 2 μM resiquimod control, read-out: mean pEC50 for induction of TNF-α (converted)
Description: as §1, §2, §3, §4, §5, §6

EC50 (Interferon-α [2]) [µM] | EC50 (TNF-α) [µM] | Compound | EC50 (Interferon-α [1]) [µM]
– | – | CCCCNc1nc(N)c2[nH]c(=O)n(CCCNCC3CCCO3)c2n1 (centres unmarked) [Example 15, 6-Amino-2-(butylamino)-9-{3-[(tetrahydro-2-furanylmethyl)amino]propyl}-7,9-dihydro-8H-purin-8-one] | < 10
< 1 | > 10 | CCCCOc1nc(N)c2[nH]c(=O)n(CCCNCC3CCOCC3)c2n1 [Example 8, 6-Amino-2-(butyloxy)-9-{3-[(tetrahydro-2H-pyran-4-ylmethyl)amino]propyl}-7,9-dihydro-8H-purin-8-one] | < 10
– | – | CCCCOc1nc(N)c2[nH]c(=O)n(CCCN[C@H]3CCCO3)c2n1 [Example 1, 6-Amino-2-(butyloxy)-9-{3-[(2R)-tetrahydro-2-furanylamino]propyl}-7,9-dihydro-8H-purin-8-one] | < 10
– | – | CCCCNc1nc(N)c2[nH]c(=O)n(CCCNCCC3CCCCO3)c2n1 (centres unmarked) [Example 18, 6-Amino-2-(butylamino)-9-(3-{[2-(tetrahydro-2H-pyran-2-yl)ethyl]amino}propyl)-7,9-dihydro-8H-purin-8-one] | < 10
< 1 | > 10 | CCCCOc1nc(N)c2[nH]c(=O)n(CCCNCC3CCCO3)c2n1 (centres unmarked) [Example 3, 6-Amino-2-(butyloxy)-9-{3-[(tetrahydro-2-furanylmethyl)amino]propyl}-7,9-dihydro-8H-purin-8-one] | < 10
– | – | CCCCOc1nc(N)c2[nH]c(=O)n(CCCNCC3CCCCO3)c2n1 (centres unmarked) [Example 6, 6-Amino-2-(butyloxy)-9-{3-[(tetrahydro-2H-pyran-2-ylmethyl)amino]propyl}-7,9-dihydro-8H-purin-8-one] | < 10
< 1 | > 10 | CCCCNc1nc(N)c2[nH]c(=O)n(CCCNCCC3CCCO3)c2n1 (centres unmarked) [Example 16, 6-Amino-2-(butylamino)-9-(3-{[2-(tetrahydro-2-furanyl)ethyl]amino}propyl)-7,9-dihydro-8H-purin-8-one] | < 10
– | – | CCCCOc1nc(N)c2[nH]c(=O)n(CCCNCC3CCCOC3)c2n1 (centres unmarked) [Example 7, 6-Amino-2-(butyloxy)-9-{3-[(tetrahydro-2H-pyran-3-ylmethyl)amino]propyl}-7,9-dihydro-8H-purin-8-one] | < 10
– | – | CCCCOc1nc(N)c2[nH]c(=O)n(CCCNCCC3CCCOC3)c2n1 (centres unmarked) [Example 10, 6-Amino-2-(butyloxy)-9-(3-{[2-(tetrahydro-2H-pyran-3-yl)ethyl]amino}propyl)-7,9-dihydro-8H-purin-8-one] | < 10
< 0.1 | > 1 | CCC[C@H](C)Oc1nc(N)c2[nH]c(=O)n(CCCNCCC3CCCO3)c2n1 (stereo partly drawn) [Example 13, 6-Amino-2-{[(1S)-1-methylbutyl]oxy}-9-(3-{[2-(tetrahydro-2-furanyl)ethyl]amino}propyl)-7,9-dihydro-8H-purin-8-one] | –
< 0.1 | > 1 | CCC[C@H](C)Oc1nc(N)c2[nH]c(=O)n(CCCNCC3CCCO3)c2n1 (stereo partly drawn) [Example 12, 6-Amino-2-{[(1S)-1-methylbutyl]oxy}-9-{3-[(tetrahydro-2-furanylmethyl)amino]propyl}-7,9-dihydro-8H-purin-8-one] | –
< 1 | > 10 | CCCCOc1nc(N)c2[nH]c(=O)n(CCCNCCC3CCCCO3)c2n1 (centres unmarked) [Example 9, 6-Amino-2-(butyloxy)-9-(3-{[2-(tetrahydro-2H-pyran-2-yl)ethyl]amino}propyl)-7,9-dihydro-8H-purin-8-one] | < 10
– | – | CCCCNc1nc(N)c2[nH]c(=O)n(CCCNCC3CCOCC3)c2n1 [Example 17, 6-Amino-2-(butylamino)-9-{3-[(tetrahydro-2H-pyran-4-ylmethyl)amino]propyl}-7,9-dihydro-8H-purin-8-one] | < 10
< 0.1 | > 1 | CCC[C@H](C)Oc1nc(N)c2[nH]c(=O)n(CCCNCC3CCOCC3)c2n1 [Example 14, 6-Amino-2-{[(1S)-1-methylbutyl]oxy}-9-{3-[(tetrahydro-2H-pyran-4-ylmethyl)amino]propyl}-7,9-dihydro-8H-purin-8-one] | < 10
< 1 | > 10 | CCCCOc1nc(N)c2[nH]c(=O)n(CCCNCCC3CCCO3)c2n1 (centres unmarked) [Example 5, 6-Amino-2-(butyloxy)-9-(3-{[2-(tetrahydro-2-furanyl)ethyl]amino}propyl)-7,9-dihydro-8H-purin-8-one] | < 10
– | – | CCCCOc1nc(N)c2[nH]c(=O)n(CCCN[C@@H]3CCCO3)c2n1 [Example 2, 6-Amino-2-(butyloxy)-9-{3-[(2S)-tetrahydro-2-furanylamino]propyl}-7,9-dihydro-8H-purin-8-one] | < 10
– | – | CCCCOc1nc(N)c2[nH]c(=O)n(CCCNCCC3CCOCC3)c2n1 [Example 11, 6-Amino-2-(butyloxy)-9-(3-{[2-(tetrahydro-2H-pyran-4-yl)ethyl]amino}propyl)-7,9-dihydro-8H-purin-8-one] | < 10
– | – | CCCCOc1nc(N)c2[nH]c(=O)n(CCCNCC3CCOC3)c2n1 (centres unmarked) [Example 4, 6-Amino-2-(butyloxy)-9-{3-[(tetrahydro-3-furanylmethyl)amino]propyl}-7,9-dihydro-8H-purin-8-one] | < 10
